Measurements published in paper PMC10065799, “High-throughput profiling of sequence recognition by tyrosine kinases and SH2 domains using bacterial peptide display” (eLife, 2023).

What was measured:
AncSZ kinase domain = experiment: pTyr-Var library bacterial peptide display kinase screen (enrichment scores); assay type: biochemical
c-Abl kinase domain = target: T1, c-Abl kinase domain (Mus musculus, UniProt P00520); experiment: as above; assay type: biochemical
T1 sequence (P00520 242-493 limits assumed): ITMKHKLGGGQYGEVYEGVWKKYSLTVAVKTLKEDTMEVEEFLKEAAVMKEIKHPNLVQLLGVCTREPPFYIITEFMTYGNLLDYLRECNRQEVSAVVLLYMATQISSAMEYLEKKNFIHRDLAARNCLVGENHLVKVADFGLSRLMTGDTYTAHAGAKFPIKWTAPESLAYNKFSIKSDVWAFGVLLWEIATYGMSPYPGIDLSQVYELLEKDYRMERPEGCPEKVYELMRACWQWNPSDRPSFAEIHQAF

EPHB2 kinase domain = experiment: as above; assay type: biochemical, human
Fer kinase domain = experiment: as above; assay type: biochemical, mouse
FGFR1 kinase domain = experiment: as above; assay type: biochemical, human
Fyn kinase domain = experiment: as above; assay type: biochemical, human
Jak2 = experiment: as above; assay type: biochemical, human
MERTK kinase domain = experiment: as above; assay type: biochemical, human
Hck kinase domain = experiment: as above; assay type: biochemical, human
c-Src SH2 domain = c-Src SH2 domain (Homo sapiens, UniProt P12931); experiment: pTyr-Var library SH2 domain screen with SH2-dynabeads (enrichment scores); conditions: sheet c-Src
FGFR3 kinase domain = experiment: pTyr-Var library bacterial peptide display kinase screen (enrichment scores); assay type: biochemical, human
[1] = tested on: 4G10 Platinum pan-phosphotyrosine antibody; experiment: Phosphorylated pTyr-Var library selection with biotinylated pan-phosphotyrosine antibody; assay type: binding, mouse; conditions: enrichment score, sheet SH2-vs-peptide
Experimental: After the desired time of library phosphorylation, kinase activity was quenched with 25 mM EDTA and the cells were washed with PBS containing 0.2% BSA. Kinase-treated cells were then labeled with a 1:1000 dilution of biotinylated 4G10 Platinum anti-phosphotyrosine antibody (Millipore) for an hour on ice and washed with PBS containing 0.1% BSA and 2 mM EDTA (isolation buffer). The cells were finally resuspended in PBS containing 0.1% BSA. The phosphorylated, antibody-labeled cells were then mixed with magnetic beads from Dynabeads FlowComp Flexi kit (Invitrogen), at a ratio of 37.5 μL of washed beads per 50 μL of cell suspension, diluted into 450 μL of isolation buffer. The suspension was rotated at 4 °C for 30 minutes, then 375 μL of isolation buffer was added and the beads were separated from the bulk solution on a magnetic rack. The beads were washed once with 1 mL of isolation buffer, and then the supertantant were removed by aspiration. […] The bead/lysate mixture was centrifuged to pellet the beads and the mixture was stored at -20 °C.

Grb2 SH2 domain = experiment: pTyr-Var library SH2 domain screen with SH2-dynabeads (enrichment scores)
EPHB1 kinase domain = experiment: pTyr-Var library bacterial peptide display kinase screen (enrichment scores); assay type: biochemical, human
SHP2 C-SH2 domain = experiment: pTyr-Var library SH2 domain screen with SH2-dynabeads (enrichment scores)
c-Src kinase domain = c-Src kinase domain (Homo sapiens, UniProt P12931); experiment: pTyr-Var library bacterial peptide display kinase screen (enrichment scores); assay type: biochemical
Fes = experiment: as above; assay type: biochemical; conditions: mean of log2 of enrichment over R1-R6
[2] = pTyr-Var library, enrichment score, replicate 1
[3] = pTyr-Var library, enrichment score, replicate 3
[4] = pTyr-Var library, enrichment score, replicate 4
[5] = mean of log2 of enrichment over R1-R4
[6] = mean of log2 enrichment of reference peptide, n = 4
[7] = pTyr-Var library, reference peptide enrichment, mean of n = 4
[8] = mean of log2 enrichment of reference peptide, n = 5
[9] = pTyr-Var library, reference peptide enrichment, mean of n = 5

AncSZ mean of log2(enrichment) (AncSZ kinase domain; mean of log2 of enrichment over R1-R5): -0.07806
AncSZ enrich. R1 (AncSZ kinase domain; [2]): 1.096
AncSZ enrich. R3 (AncSZ kinase domain; [3]): 1.043
AncSZ enrich. R4 (AncSZ kinase domain; [4]): 0.9321
AncSZ enrich. R5 (AncSZ kinase domain; pTyr-Var library, enrichment score, replicate 5): 0.7233
c-Abl mean of log2(enrichment) (c-Abl kinase domain; [5]): -0.4566
c-Abl enrich. R1 (c-Abl kinase domain; [2]): 0.7622
c-Abl enrich. R3 (c-Abl kinase domain; [3]): 0.701
c-Abl enrich. R4 (c-Abl kinase domain; [4]): 0.6553
mean of log2(reference) (EPHB2 kinase domain; [6]): -0.9971
ref. mean (EPHB2 kinase domain; [7]): 0.5335
Fer mean of log2(enrichment) (Fer kinase domain; [5]): -1.082
Fer enrich. R1 (Fer kinase domain; [2]): 0.5665
Fer enrich. R3 (Fer kinase domain; [3]): 0.4786
Fer enrich. R4 (Fer kinase domain; [4]): 0.5652
mean of log2(reference) (FGFR1 kinase domain; [8]): -0.9619
ref. mean (FGFR1 kinase domain; [9]): 0.5188
Fyn mean of log2(enrichment) (Fyn kinase domain; [5]): -1.315
Fyn enrich. R1 (Fyn kinase domain; [2]): 0.792
Fyn enrich. R3 (Fyn kinase domain; [3]): 0.3214
Fyn enrich. R4 (Fyn kinase domain; [4]): 0.1749
Jak2 mean of log2(enrichment) (Jak2; mean of log2 of enrichment over R1-R3): 0.02155
Jak2 enrich. R1 (Jak2; [2]): 0.9714
Jak2 enrich. R3 (Jak2; [3]): 1.09
mean of log2(reference) (MERTK kinase domain; [6]): -1.387
ref. mean (MERTK kinase domain; [7]): 0.3952
Hck mean of log2(enrichment) (Hck kinase domain; mean of log2(variant) / mean of log2(reference), R1-R4): 0.5689
Hck enrich. R1 (Hck kinase domain; [2]): 0.9245
Hck enrich. R3 (Hck kinase domain; [3]): 0.4813
Hck enrich. R4 (Hck kinase domain; [4]): 0.2133
mean of log2(reference) (c-Src SH2 domain; mean of log2 enrichment of reference peptide, R1-R3): -1.13
ref. mean (c-Src SH2 domain; reference peptide, mean of R1-R3): 0.4875
mean of log2(reference) (FGFR3 kinase domain; [8]): -0.5381
ref. mean (FGFR3 kinase domain; [9]): 0.7165
mean of log2(reference) (EPHB1 kinase domain; [6]): -0.6213
ref. mean (EPHB1 kinase domain; [7]): 0.6707
c-Src mean of log2(enrichment) (c-Src kinase domain; [5]): -1.224
c-Src enrich. R1 (c-Src kinase domain; [2]): 0.458
c-Src enrich. R3 (c-Src kinase domain; [3]): 0.3437
c-Src enrich. R4 (c-Src kinase domain; [4]): 0.4348
Fes mean of log2(enrichment) (Fes): 0.1816
Sequence: DRVALYIAREG [AACS_Y117]
4G10 (mean) [1]: 0.8696
mean of log2(reference) (Grb2 SH2 domain; Grb2 SH2, mean of log2 enrichment of reference, R1-R3): -0.1768
ref. mean (Grb2 SH2 domain; reference peptide enrichment score, Grb2 SH2, mean of R1-R3): 0.8958
mean of log2(reference) (SHP2 C-SH2 domain; SHP2-C SH2, mean of log2 enrichment of reference, R1-R3): -0.1513
ref. mean (SHP2 C-SH2 domain; reference peptide enrichment score, SHP2-C SH2, mean of R1-R3): 0.928
